Measured values as given in patent EP1953147A1, “HETEROCYCLIC COMPOUND AND MEDICINAL APPLICATION THEREOF” (priority 2005, dated 2007).

system: ΔG/SEAP/HCV E1E2; experiment: Effect of test substance on cell infection with HCV pseudotype virus (SEAP reporter assay in HepG2 cells); type: cell-based; details: Hepatitis C virus

First: COc1cc(OC)cc(-c2nn(-c3cc(N(C)CCO)ccc3C(F)(F)F)c(=O)c3c2CCC3)c1 [Example 92, 4-(3,5-dimethoxy-phenyl)-2-{5-[(2-hydroxy-ethyl)-methyl-amino]-2-trifluoromethyl-phenyl}-2,5,6,7-tetrahydro-cyclopenta[d]pyridazin-1-one]
Second: CCCN(C)c1ccc(C(F)(F)F)c(-n2nc(-c3cc(OC)cc(OC)c3)c3c(c2=O)CCC3)c1 [Example 101, 4-(3,5-dimethoxy-phenyl)-2-[5-(methyl-propylamino)-2-trifluoromethyl-phenyl]-2,5,6,7-tetrahydro-cyclopenta[d]pyridazin-1-one]
The IC50 of the first is lower: less than 0.1 µM for the first, 0.1 to 10 µM for the second. The first is the more potent here.

COc1cc(OC)cc(-c2nn(-c3cc(OCCO)ccc3C(F)(F)F)c(=O)c3c2CCC3)c1 [Example 63, 4-(3,5-dimethoxy-phenyl)-2-[5-(2-hydroxy-ethoxy)-2-trifluoromethyl-phenyl]-2,5,6,7-tetrahydro-cyclopenta[d]pyridazin-1-one] and CCOc1ccc(C(F)(F)F)c(-n2nc(-c3cc(OC)cc(OC)c3)c3c(c2=O)CCC3)c1 [Example 62, 4-(3,5-dimethoxy-phenyl)-2-(5-ethoxy-2-trifluoromethyl-phenyl)-2,5,6,7-tetrahydro-cyclopenta[d]pyridazin-1-one] cannot be ordered by IC50: less than 0.1 µM for the first, less than 0.1 µM for the second.

COc1cc(OC)cc(-c2nn(-c3cc(N4CC[C@H](O)C4)ccc3C(F)(F)F)c(=O)c3c2CCN3CCN)c1 [Example 49, 1-(2-amino-ethyl)-4-(3,5-dimethoxy-phenyl)-6-[5-((S)-3-hydroxy-pyrrolidin-1-yl)-2-trifluoromethylphenyl]-1,2,3,6-tetrahydro-pyrrolo[2,3-d]pyridazin-7-one] and COc1cc(OC)cc(-c2nn(-c3cc(N4CC[C@H](O)C4)ccc3C(F)(F)F)c(=O)c3c2CCN3CC#N)c1 [Example 48, {4-(3,5-dimethoxy-phenyl)-6-[5-((S)-3-hydroxy-pyrrolidin-1-yl)-2-trifluoromethyl-phenyl]-7-oxo-2,3,6,7-tetrahydro-pyrrolo[2,3-d]pyridazin-1-yl}-acetonitrile] cannot be ordered by IC50: less than 0.1 µM for the first, less than 0.1 µM for the second.

COc1cc(OC)cc(-c2nn(-c3cc(NCCO)ccc3C(F)(F)F)c(=O)c3c2CCC3)c1 [Example 91, 4-(3,5-dimethoxy-phenyl)-2-[5-(2-hydroxy-ethylamino)-2-trifluoromethyl-phenyl]-2,5,6,7-tetrahydro-cyclopenta[d]pyridazin-1-one] and COc1cc(OC)cc(-c2nn(-c3cc(N4CCOCC4)ccc3C(F)(F)F)c(=O)c3c2CCC3)c1 [Example 70, 4-(3,5-dimethoxy-phenyl)-2-(5-morpholin-4-yl-2-trifluoromethyl-phenyl)-2,5,6,7-tetrahydro-cyclopenta[d]pyridazin-1-one] cannot be ordered by IC50: less than 0.1 µM for the first, less than 0.1 µM for the second.

Cc1cc(C)cc(-c2nn(-c3cc(-c4cccnn4)ccc3C(F)(F)F)c(=O)c3c2CCC3)c1 [Example 8, 4-(3,5-dimethyl-phenyl)-2-(5-pyridazin-3-yl-2-trifluoromethyl-phenyl)-2,5,6,7-tetrahydro-cyclopenta[d]pyridazin-1-one] and COc1cc(C)cc(-c2nn(-c3cc(-c4cccnn4)ccc3C(F)(F)F)c(=O)c3c2CC(C)N3)c1 (stereo not drawn) [Example 15, 4-(3-methoxy-5-methyl-phenyl)-2-methyl-6-(5-pyridazin-3-yl-2-trifluoromethyl-phenyl)-1,2,3,6-tetrahydro-pyrrolo[2,3-d]pyridazin-7-one] cannot be ordered by IC50: less than 0.1 µM for the first, less than 0.1 µM for the second.

First: COc1cc(OC)cc(-c2nn(-c3cc(N4CC[C@H](O)C4)ccc3S(C)(=O)=O)c(=O)c3c2CCC3)c1 [Example 38, 4-(3,5-dimethoxy-phenyl)-2-[5-((S)-3-hydroxy-pyrrolidin-1-yl)-2-methanesulfonyl-phenyl]-2,5,6,7-tetrahydro-cyclopenta[d]pyridazin-1-one]
Second: COc1cc(OC)cc(-c2nn(-c3cc(Cl)ccc3C(F)(F)F)c(=O)c3c2CCN3)c1 [Example 51, 6-(5-chloro-2-trifluoromethyl-phenyl)-4-(3,5-dimethoxy-phenyl)-1,2,3,6-tetrahydro-pyrrolo[2,3-d]pyridazin-7-one]
The IC50 of the first is lower: less than 0.1 µM for the first, 0.1 to 10 µM for the second. The first is the more potent here.
